# Source: US20090137662A1, “SYNERGY OF DOPAMINE D2 AND ADENOSINE A2 RECEPTORS ACTIVATES PKA SIGNALING VIA BETA/GAMMA DIMERS” (The Regents of the University of California, priority 2002, published 2009)
# Read-outs that look alike come from different tables or passages of the source.
# Tests used:
# [1] = tested on: Ethanol-indicative proteins in CHO cells
# Excerpt: (§1) The particular protein and cellular subregion(s) selected for examination can vary depending on the cell type to be used in a particular method. Cells used in the methods of the invention are of a cell type in which the selected protein is predominantly present in a different amount in a particular cellular subregion of ethanol-exposed cells compared to ethanol-unexposed cells. […] One of skill in the art can readily determine the intracellular distribution of other ethanol indicative proteins by staining ethanol-exposed and ethanol-unexposed cells of various cell types with stains (e.g., antibodies) specific for such proteins.
# [2] = tested on: Ethanol-indicative proteins in NG108 cells; conditions: ethanol 10 minutes or 12-48 hours
# Excerpt: as §1
# [3] = tested on: Ethanol-indicative proteins in Purkinje cells; conditions: Purkinje cells in brain section; ethanol 72 hr exposure; EUC origin Cytoplasm
# Excerpt: as §1
# [4] = tested on: Ethanol-indicative proteins in lymphocytes; conditions: Lymphocyte; ethanol-exposed; EUC origin Cytoplasm
# Excerpt: as §1
# δ-PKC [5] = type: cell-based; conditions: NG108-15 cells
# Experimental: (§2) Naive NG108-15 cells were, therefore, incubated in for ten (10) min. in 100 nM PMA, to then determine localization of δ-PKC and ε-PKC.
# ε-PKC [6] = type: cell-based; conditions: NG108-15 cells; for ε-PKC (% cells) Cytoplasmic staining / ε-PKC (% cells) Perinuclear staining: EtOH exposure, n = 5; for ε-PKC (% cells) Cytoplasmic staining: control 5 ± 2; for ε-PKC (% cells) Perinuclear staining: control 95 ± 2
# Experimental: as §2
# ε-PKC [7] = type: cell-based; conditions: NG 108-15 or CHO cells; Ethanol 200 mM, 30 min; no compound: Perinucleus
# Experimental: NG 108-15 or CHO cells were pre-incubated in the presence or absence of the indicated inhibitor for 30 min. (except for GF which was pre-incubated for 1 hour), then further incubated in the absence or presence of 200 mM ethanol for 30 min.
# [8] = tested on: CREB (GAL4-CREB fusion, luciferase reporter); test: GAL4-CREB / GAL4-luciferase reporter in NG108-15 cells; type: cell-based; conditions: ethanol exposure
# Experimental: Cells are cultured as described in Dohrman et al., Proc Natl Acad Sci USA (1996) 93:10217-10221, and are transfected using Effectene (Qiagene) as described by the manufacturers. […] Luciferase activity is measured using Luciferase Assay System (Promega) and normalized to β-galactosidase activity.
# NG108-15 cells are co-transfected with a GAL4-CREB fusion construct and with a second construct containing the DNA binding site of GAL4 fused to luciferase as a reporter gene. […] The ethanol-induced increase in luciferase activity induced was inhibited by Rp-cAMPS but not by the CaMK and PKC inhibitors KN-62 and GF, respectively (FIGS. 15 and 16B).
# [9] = tested on: CRE-regulated luciferase expression; test: CRE-luciferase reporter in NG108-15 cells; type: cell-based; conditions: NG108-15 cells; for increase in luciferase activity above control: 200 mM ethanol
# Experimental: Luciferase is used as a reporter gene in a transient expression system to identify substances that alter the effects of ethanol on CRE-regulated gene expression. Cells are cultured as described in Dohrman et al., Proc Natl Acad Sci USA (1996) 93:10217-10221, and are transfected using Effectene (Qiagene) as described by the manufacturers. Twenty-four hours after transfection the cells are treated with 200 mM ethanol for 30 min. to 36 hr. Luciferase activity is measured using Luciferase Assay System (Promega) and normalized to β-galactosidase activity.
# (§3) NG108-15 cells were co-transfected with a fusion construct containing the cAMP response element (CRE) fused to luciferase as a reporter gene (Stratagene).
# Since the ERK/MAPK pathway may regulate CREB phosphorylation and CRE-mediated gene expression, NG108-15 cells having the luciferase construct were co-incubated with 200 mM ethanol and a MEK inhibitor (PD98059 (2 nM, Calbiochem, San Diego, Calif.) or U0126 (1 μM, Calbiochem, San Diego, Calif.)) or a dominant negative MEK construct (DN-MEK, Dr. R. Seger) in which Lys-97 was replaced by alanine.
# as §3
# ε-PKC [10] = test: Translocation of ε-PKC in NG108-15 and CHO cells expressing the applicable receptor; type: cell-based; conditions: NG108-15 cells expressing the applicable receptor; 200 mM Ethanol, 50 nM NPA, 1 μM D-ala-D-leu-enkephalin, 2 μM R(+) methanindamide, 20 μM Carbachol, 10^−5 M UK14304, 20 nM CCPA, 100 nM CGS-21680 HCl; None: Perinucleus
# Excerpt: (§4) To determine whether addictive drugs other than ethanol would cause translocation of some proteins, we examine the effects of various receptor agonists and antagonists on ε-PKC δ-PKC or PKA Cα translocation in NG108-15 and CHO cells expressing the applicable receptor. […] Adenosine is also implicated in some behavioral effects of ethanol.
# (§5) The mechanisms underlying ethanol- and dopamine-mediated translocation of ε-PKC and δ-PKC were studied by altering the activity of various molecules that might be in the pathways leading to translocation.
# δ-PKC [11] = test: Translocation of δ-PKC in NG108-15 and CHO cells expressing the applicable receptor; type: cell-based
# Excerpt: as §4, §5
# GFP-Cα = type: cell-based; conditions: for Subcellular localization of GFP-Cα: unstimulated: Golgi Apparatus
# PKCδ-GFP = conditions: +100 mM EtOH/30 min; for Subcellular Localization of PKCδ-GFP: unstimulated: Golgi Apparatus
# GFP-RIIβ = conditions: +100 mM EtOH 30 min, unstimulated: Golgi Apparatus
# [12] = ethanol 10′ exposure, EUC origin Perinucleus
# [13] = NG108-15/D2R, +100 mM EtOH/30 min or 50 nM NPA/30 min
structure (smiles),measurement,setting,value
"CCO [Ethanol, ethanol]","Cellular subregion in which the protein is predominantly present, EEC (Destination): RACK 2 (β′COP)",[1]; [12],Cytoplasm
same,"Cellular subregion in which the protein is predominantly present, EEC (Destination): ε-PKC",[1]; [12],Cytoplasm
same,"Cellular subregion in which the protein is predominantly present, EEC (Destination): δ-PKC","[1]; ethanol 10 minutes or 12-48 hours, EUC origin Golgi",Perinucleus and nucleus
same,"Cellular subregion in which the protein is predominantly present, EEC (Destination): RIIβ",[2]; EUC origin Golgi,Nucleus
same,"Cellular subregion in which the protein is predominantly present, EEC (Destination): δ-PKC",[2]; EUC origin Golgi,Perinucleus and nucleus
same,"Cellular subregion in which the protein is predominantly present, EEC (Destination): Protein Phosphatase I and IIB",[2]; EUC origin Nucleus,Cytoplasm
same,"Cellular subregion in which the protein is predominantly present, EEC (Destination): RACK 2 (β′COP)",[2]; EUC origin Perinucleus,Cytoplasm
same,"Cellular subregion in which the protein is predominantly present, EEC (Destination): ε-PKC",[2]; EUC origin Perinucleus,Cytoplasm
same,"Cellular subregion in which the protein is predominantly present, EEC (Destination): ε-PKC",[3],Not detectable
same,"Cellular subregion in which the protein is predominantly present, EEC (Destination): δ-PKC",[4],Cytoplasm
same,"Cellular subregion in which the protein is predominantly present, EEC (Destination): ε-PKC",[4],Cytoplasm
same,ethanol-induced altered localization of δ-PKC,"δ-PKC [5]; 25 mM ethanol, 4 days",also observed
same,δ-PKC (% cells) Golgi Staining,"δ-PKC [5]; 200 mM EtOH 48 hours, n = 5, control 74 ± 7",2 ± 2 % cells
same,localization of δ-PKC,"δ-PKC [5]; 200 mM EtOH, 48 hours",localized to the perinucleus and nucleus and absent from the Golgi
same,ethanol-induced altered localization of ε-PKC,"ε-PKC [6]; 25 mM ethanol, 4 days",also observed
same,ε-PKC (% cells) Cytoplasmic staining,ε-PKC [6]; listed as EtOH,94 ± 2 % cells
same,ε-PKC (% cells) Cytoplasmic staining,ε-PKC [6]; listed as ethanol,more than 90 % cells
same,ε-PKC (% cells) Perinuclear staining,ε-PKC [6]; listed as EtOH,94 ± 3 % cells
same,ε-PKC (% cells) Perinuclear staining,ε-PKC [6]; listed as ethanol,more than 90 % cells
same,Predominant ε-PKC Localization,ε-PKC [7],Cytoplasm
same,increase of expression of luciferase (GAL4-CREB / GAL4-luciferase),[8],approximately 2 fold
same,increase in luciferase activity,"[9]; 50 mM ethanol, 14-hour exposure",about 25%
same,increase in luciferase activity above control,[9]; 4 hour exposure,29±6%
same,increase in luciferase activity above control,[9]; 14 hours of exposure,79±4%
same,increase of expression of luciferase (CRE-luciferase),[9]; ethanol exposure,more than 2 fold
same,Predominant Localization of ε-PKC (agent alone),ε-PKC [10],Cytoplasm
same,Predominant Localization of δ-PKC (agent alone),"δ-PKC [11]; 200 mM Ethanol or 50 nM NPA, None: Golgi",Perinucleus &
same,"Translocation of δ PKC and δ PKC, agent alone","δ-PKC [11]; D2-receptor-expressing NG108-15 and CHO cells, 10^−9 M NPA or 25 mM ethanol alone",neither agent alone caused translocation
same,Subcellular localization of GFP-Cα,"GFP-Cα; 1° Glia (rat hippocampus culture), +100 mM EtOH/30 min or 50 nM NPA/30 min",Nucleus
same,cells showing the stated localization of GFP-Cα,"GFP-Cα; 1° Glia, +100 mM EtOH/30 min or 50 nM NPA/30 min",[<20% cells]
same,Subcellular localization of GFP-Cα,"GFP-Cα; 1° Neurons (rat hippocampus culture), +100 mM EtOH/30 min",Nucleus
same,cells showing the stated localization of GFP-Cα,"GFP-Cα; 1° Neurons, +100 mM EtOH/30 min",[>50% cells]
same,cells showing the stated localization of GFP-Cα,GFP-Cα; [13],[>50% cells]
same,Subcellular localization of GFP-Cα,GFP-Cα; [13],Nucleus
same,Subcellular Localization of PKCδ-GFP,PKCδ-GFP; 1° Glia,Golgi Apparatus
same,cells showing the stated localization of PKCδ-GFP,PKCδ-GFP; NG108-15/D2R,[>50% cells]
same,Subcellular Localization of PKCδ-GFP,PKCδ-GFP; NG108-15/D2R,Perinucleus/
same,Subcellular Localization of GFP-RIIβ,GFP-RIIβ; 1° Glia,Golgi Apparatus
same,Subcellular Localization of GFP-RIIβ,GFP-RIIβ; 1° Neurons,Golgi Apparatus
same,Subcellular Localization of GFP-RIIβ,GFP-RIIβ; NG108-15/D2R,Golgi Apparatus
